Measured values reported in ChEMBL document CHEMBL1275460, “Molecular characterization and epidemiology of extended-spectrum-beta-lactamase-producing Escherichia coli and Klebsiella pneumoniae isolates causing health care-associated infection in Thailand, where the CTX-M family is endemic” (2008).
Converted amounts (≈) assume the structure as drawn.

Legend:
Format in all cases: functional
Escherichia coli [1] = experiment: Antimicrobial activity against extended-spectrum beta lactamase producing Escherichia coli assessed as resistant isolates by Etest
Klebsiella pneumoniae [2] = experiment: Antimicrobial activity against extended-spectrum beta lactamase producing Klebsiella pneumoniae assessed as resistant isolates by Etest
Escherichia coli [3] = experiment: Antimicrobial activity against extended-spectrum beta lactamase producing Escherichia coli expressing beta-lactamase CTX-M-3, CTX-M-15 and CTX-M-55 gene assessed as susceptible isolates by Etest
Klebsiella pneumoniae [4] = experiment: Antimicrobial activity against extended-spectrum beta lactamase producing Klebsiella pneumoniae expressing beta-lactamase CTX-M-3, CTX-M-15 and CTX-M-55 gene assessed as susceptible isolates by Etest
Escherichia coli [5] = experiment: Antimicrobial activity against extended-spectrum beta lactamase producing Escherichia coli expressing beta-lactamase CTX-M-3, CTX-M-15 and CTX-M-55 and other bla gene assessed as susceptible isolates by Etest
Klebsiella pneumoniae [6] = experiment: Antimicrobial activity against extended-spectrum beta lactamase producing Klebsiella pneumoniae expressing beta-lactamase CTX-M-3, CTX-M-15 and CTX-M-55 and other bla gene assessed as susceptible isolates by Etest
Escherichia coli [7] = experiment: Antimicrobial activity against extended-spectrum beta lactamase producing Escherichia coli expressing beta-lactamase CTX-M-14 and CTX-M-27 gene assessed as susceptible isolates by Etest; conditions: pooled result: one value given for 2 cell lines, strains, targets or settings
Escherichia coli [8] = experiment: Antimicrobial activity against extended-spectrum beta lactamase producing Escherichia coli expressing beta-lactamase CTX-M-14 and CTX-M-27 gene and other bla gene assessed as susceptible isolates by Etest; conditions: pooled result: one value given for 2 cell lines, strains, targets or settings
Escherichia coli [9] = experiment: Antimicrobial activity against extended-spectrum beta lactamase producing Escherichia coli by Etest
Klebsiella pneumoniae [10] = experiment: Antimicrobial activity against extended-spectrum beta lactamase producing Klebsiella pneumoniae by Etest
Escherichia coli [11] = experiment: Antimicrobial activity against extended-spectrum beta lactamase producing Escherichia coli expressing beta-lactamase CTX-M-3, CTX-M-15 and CTX-M-55 gene by Etest
Klebsiella pneumoniae [12] = experiment: Antimicrobial activity against extended-spectrum beta lactamase producing Klebsiella pneumoniae expressing beta-lactamase CTX-M-3, CTX-M-15 and CTX-M-55 gene by Etest
Escherichia coli [13] = experiment: Antimicrobial activity against extended-spectrum beta lactamase producing Escherichia coli expressing beta-lactamase CTX-M-3, CTX-M-15 and CTX-M-55 and other bla gene by Etest
Klebsiella pneumoniae [14] = experiment: Antimicrobial activity against extended-spectrum beta lactamase producing Klebsiella pneumoniae expressing beta-lactamase CTX-M-3, CTX-M-15 and CTX-M-55 and other bla gene by Etest
Escherichia coli [15] = experiment: Antimicrobial activity against extended-spectrum beta lactamase producing Escherichia coli expressing beta-lactamase CTX-M-14 and CTX-M-27 gene by Etest
Klebsiella pneumoniae [16] = experiment: Antimicrobial activity against extended-spectrum beta lactamase producing Klebsiella pneumoniae expressing beta-lactamase CTX-M-14 and CTX-M-27 gene by Etest
Escherichia coli [17] = experiment: Antimicrobial activity against extended-spectrum beta lactamase producing Escherichia coli expressing beta-lactamase CTX-M-14 and CTX-M-27 and other bla gene by Etest
Klebsiella pneumoniae [18] = experiment: Antimicrobial activity against extended-spectrum beta lactamase producing Klebsiella pneumoniae expressing beta-lactamase CTX-M-14 and CTX-M-27 gene and other bla gene by Etest

| Molecule | Activity (Escherichia coli [1]) [%] | Activity (Klebsiella pneumoniae [2]) [%] | Activity (Escherichia coli [3]) [%] | Activity (Klebsiella pneumoniae [4]) [%] | Activity (Escherichia coli [5]) [%] | Activity (Klebsiella pneumoniae [6]) [%] | Activity (Escherichia coli [7]) [%] | Activity (Escherichia coli [8]) [%] | MIC50 (Escherichia coli [9]) [µg/mL] | MIC90 (Escherichia coli [9]) [µg/mL] | MIC50 (Klebsiella pneumoniae [10]) [µg/mL] | MIC90 (Klebsiella pneumoniae [10]) [µg/mL] | MIC90 (Escherichia coli [11]) [µg/mL] | MIC90 (Klebsiella pneumoniae [12]) [µg/mL] | MIC90 (Escherichia coli [13]) [µg/mL] | MIC90 (Klebsiella pneumoniae [14]) [µg/mL] | MIC90 (Escherichia coli [15]) [µg/mL] | MIC90 (Klebsiella pneumoniae [16]) [µg/mL] | MIC90 (Escherichia coli [17]) [µg/mL] | MIC90 (Klebsiella pneumoniae [18]) [µg/mL] |
| --- | --- | --- | --- | --- | --- | --- | --- | --- | --- | --- | --- | --- | --- | --- | --- | --- | --- | --- | --- | --- |
| NCC[C@H](O)C(=O)N[C@@H]1C[C@H](N)[C@@H](O[C@H]2O[C@H](CN)[C@@H](O)[C@H](O)[C@H]2O)[C@H](O)[C@H]1O[C@H]1O[C@H](CO)[C@@H](O)[C@H](N)[C@H]1O [AMIKACIN] | 12.5 | 28.6 | 81 | 81 | 81 | 81 | 83.3 | 78.9 |  |  |  |  |  |  |  |  |  |  |  |  |
| CO/N=C(\C(=O)N[C@@H]1C(=O)N2C(C(=O)O)=C(COC(C)=O)CS[C@H]12)c1csc(N)n1 [CEFOTAXIME] |  |  |  |  |  |  |  |  | 256 (≈ 562 µM) | > 256 | 128 (≈ 281 µM) | > 256 | > 256 | > 256 | > 256 | > 256 | 128 (≈ 281 µM) | 128 (≈ 281 µM) | 256 (≈ 562 µM) | 256 (≈ 562 µM) |
| CC(C)(O/N=C(\C(=O)N[C@@H]1C(=O)N2C(C(=O)[O-])=C(C[n+]3ccccc3)CS[C@H]12)c1csc(N)n1)C(=O)O [CEFTAZIDIME] |  |  |  |  |  |  |  |  | 32 (≈ 58.5 µM) | 256 (≈ 468 µM) | 128 (≈ 234 µM) | > 256 | 256 (≈ 468 µM) | 256 (≈ 468 µM) | > 256 | > 256 | 16 (≈ 29.3 µM) | 16 (≈ 29.3 µM) | > 256 | > 256 |
| CO/N=C(\C(=O)N[C@@H]1C(=O)N2C(C(=O)O)=C(CSc3nc(=O)c(O)nn3C)CS[C@H]12)c1csc(N)n1 [CEFTRIAXONE] |  |  |  |  |  |  |  |  | > 256 | > 256 | > 256 | > 256 | > 256 | > 256 | > 256 | > 256 | > 256 | > 256 | > 256 | > 256 |
| O=C(O)c1cn(C2CC2)c2cc(N3CCNCC3)c(F)cc2c1=O [CIPROFLOXACIN] | 78.1 | 76.6 | 20.4 | 20.4 | 11.1 | 11.1 | 25.7 | 8.3 |  |  |  |  |  |  |  |  |  |  |  |  |
| C[C@@H](O)[C@H]1C(=O)N2C(C(=O)O)=C(S[C@@H]3CN[C@H](C(=O)Nc4cccc(C(=O)O)c4)C3)[C@H](C)[C@H]12 [ERTAPENEM] |  |  |  |  |  |  |  |  | 0.094 (≈ 0.198 µM) | 0.38 (≈ 0.799 µM) | 0.094 (≈ 0.198 µM) | 0.38 (≈ 0.799 µM) | 0.38 (≈ 0.799 µM) | 0.38 (≈ 0.799 µM) | 0.5 (≈ 1.05 µM) | 0.5 (≈ 1.05 µM) | 0.19 (≈ 0.4 µM) | 0.19 (≈ 0.4 µM) | 0.25 (≈ 0.526 µM) | 0.25 (≈ 0.526 µM) |
| C[C@@H](O)[C@H]1C(=O)N2C(C(=O)O)=C(SCCNC=N)C[C@H]12 [IMIPENEM ANHYDROUS] |  |  |  |  |  |  |  |  |  |  | 0.25 (≈ 0.835 µM) | 0.38 (≈ 1.27 µM) | 0.5 (≈ 1.67 µM) | 0.5 (≈ 1.67 µM) | 0.38 (≈ 1.27 µM) | 0.38 (≈ 1.27 µM) | 0.5 (≈ 1.67 µM) | 0.5 (≈ 1.67 µM) | 0.38 (≈ 1.27 µM) | 0.38 (≈ 1.27 µM) |
| C[C@@H](O)[C@H]1C(=O)N2C(C(=O)O)=C(S[C@@H]3CN[C@H](C(=O)N(C)C)C3)[C@H](C)[C@H]12 [MEROPENEM] |  |  |  |  |  |  |  |  | 0.047 (≈ 0.123 µM) | 0.125 (≈ 0.326 µM) | 0.047 (≈ 0.123 µM) | 0.125 (≈ 0.326 µM) | 0.19 (≈ 0.495 µM) | 0.19 (≈ 0.495 µM) | 0.125 (≈ 0.326 µM) | 0.125 (≈ 0.326 µM) | 0.094 (≈ 0.245 µM) | 0.094 (≈ 0.245 µM) | 0.064 (≈ 0.167 µM) | 0.064 (≈ 0.167 µM) |
| CN(C)[C@@H]1C(O)=C(C(N)=O)C(=O)[C@@]2(O)C(O)=C3C(=O)c4c(O)cccc4[C@@](C)(O)[C@H]3C[C@@H]12 [TETRACYCLINE] | 87.5 | 85.7 | 4.8 | 4.8 | 4.9 | 4.9 | 16.7 | 5.9 |  |  |  |  |  |  |  |  |  |  |  |  |
| GENTAMICIN | 66.3 | 76.4 | 24.1 | 24.1 | 19 | 19 | 33.3 | 30.3 |  |  |  |  |  |  |  |  |  |  |  |  |
